Assays:
stHIV-A19 [1] = assay: Multi-round viral replication assay in SupT1-CCR5 cells, stHIV-A19; format: cell-based, simian-tropic HIV-1; conditions: Human immunodeficiency virus 1, 168 h, supernatant vRNA 7 days post-infection, mean ± SD of three independent experiments, read-out: mean EC50 against stHIV-A19
Description: (§1) Infectious stocks of stHIV-A19,[23] HIV-1 NL4-3, and SIVmac239 were produced in HEK-293T (RRID: CVCL_1926) cells transfected with full-length viral genome plasmids using the TransIT HEK-293 transfection reagent (Mirus Bio) according to the manufacturer’s instructions. Virus stock infectious titres were determined on TZM-bl reporter cells (RRID: CVCL_B478) as previously described.[26] For experiments using SupT1-CCR5 target cells (RRID: CVCL_X633),[27] cultures were maintained in RPMI 1640 medium supplemented with 10% foetal bovine serum (FBS), 2 mM glutamine, 100 U/ml penicillin, and 100 μg/ml streptomycin. […] Cells were then washed three times to remove input virus, counted, and cultured in triplicate in growth media containing serial threefold dilutions of LEN or no LEN (control). […] Culture supernatants were collected 7 days post-inoculation, clarified by centrifugation, and stored at −80 °C for later quantification of vRNA by quantitative reverse transcription polymerase chain reaction (qRT-PCR). […] The stHIV-A19 stock was quantified with a SYBR Green-based qPCR-based product-enhanced RT (PERT) assay using a purified reverse transcriptase (RT) protein standard, as previously described.[28] […] After 7 days, the virus in culture supernatants was quantified using the PERT assay. […]

stHIV-A19 [2] = assay: Multi-round replication assay of stHIV-A19 in primary human PBMCs (PERT readout); format: cell-based, simian-tropic HIV-1; conditions: three donors, RT in supernatant at 7 days
Description: as §1

Compound: CC(C)(C#Cc1ccc(-c2ccc(Cl)c3c(NS(C)(=O)=O)nn(CC(F)(F)F)c23)c([C@H](Cc2cc(F)cc(F)c2)NC(=O)Cn2nc(C(F)(F)F)c3c2C(F)(F)[C@@H]2C[C@H]32)n1)S(C)(=O)=O [LEN, Lenacapavir]
- EC50 (stHIV-A19 [1]): 0.091 nM
- mean EC95 against stHIV-A19 in human PBMC (stHIV-A19 [2]; calculated from EC50 with Hill coefficient 3.51): 122 ± 31 pM
- mean EC95 against stHIV-A19 in human PBMC (stHIV-A19 [2]; calculated from EC50 with Hill coefficient 3.51, listed as Lenacapavir): 122 (±31 SD) pM

Reference: paper PMC10470178, “Long-acting lenacapavir protects macaques against intravenous challenge with simian-tropic HIV” (eBioMedicine, 2023)
